{"source": "ChEMBL document CHEMBL5518201", "about": "“Glycan-Modified Peptides for Dual Inhibition of Human Immunodeficiency Virus Entry into Dendritic Cells and T Cells” (J Med Chem, 2024)", "system": "Human immunodeficiency virus 1", "test": "Antiviral activity against HIV-1 pseudovirus infected in HEK293T cells transfected with DC-SIGN assessed as inhibition of viral entry into cells at 500 uM preincubated with compound for 2 hrs followed by viral addition and measured after 4 hrs by p24 ELISA relative to control", "type": "functional", "details": "Human immunodeficiency virus 1, HEK-293T, time 6 hrs", "data": [{"smiles": "[N-]=[N+]=NCCO[C@H]1O[C@H](CO[C@H]2O[C@H](CO)[C@@H](O)[C@H](O)[C@@H]2O[C@H]2O[C@H](CO)[C@@H](O)[C@H](O)[C@@H]2O)[C@@H](O)[C@H](O[C@H]2O[C@H](CO)[C@@H](O)[C@H](O)[C@@H]2O[C@H]2O[C@H](CO)[C@@H](O)[C@H](O)[C@@H]2O)[C@@H]1O", "values": [{"measurement": "inhibition at 500 µM", "value": 15, "unit": "%"}]}]}
